# Where two headings read alike, the source gives them in different places.
# Test system: HTLA ER
# Assay: MTS cell viability assay on HTLA ER NB cells
# Type: cell-based, human
# Conditions: for HTLA ER more tolerant to BPPB than HTLA 230: from IC50
# Procedure: In this section, the strong anticancer effect of BPPB against ETO-sensitive HTLA 230 and multidrug-resistant (MDR) HTLA ER neuroblastoma (NB) cells previously reported was confirmed. Cell viability in HTLA 230 and HTLA ER cells exposed to increasing concentrations of BPPB for 24, 48, and 72 h was assessed by using the MTS essay, which is an efficient, eco- and user-friendly tool, commonly used to investigate the behaviour of cancer cells when exposed to specific treatments and how these treatments influence their growth and viability.
# Following this, µM concentrations (x) were transformed in Log10 (x) (Figure 1e (HTLA 230) and Figure 1f (HTLA ER), traces with indicators and error bar). The nonlinear regression models of the Log10 (BPPB concentrations) vs. the normalized response (Hill Slope) shown in Figure 1e (HTLA 230) and Figure 1f (HTLA ER), traces without indicators, elaborated by GraphPad Prism software version 8.0.1 (GraphPad Software, Boston, MA, USA), gave us the IC50 values of BPPB for both cell populations at 24, 48, and 72 h of treatment.
# HTLA 230 is a MYCN-amplified human stage-IV NB cell line, obtained from the G. Gaslini Institute, Genoa, Italy. The cytogenetic features of the HTLA 230 cell line include […] MYCN amplification, del(11)t(11;Y), balanced translocation t(1;17)(p36;q21), and dup(11p), which were previously described by Pezzolo et al.. Cells were periodically tested for mycoplasma contamination (Mycoplasma Reagent Set, Aurogene s.p.a, Pavia, Italy). After thawing and eight passages in the culture, cell morphology and proliferation were analyzed. […] Both cell populations were cultured in RPMI 1640 (Euroclone SpA, Pavia, Italy) supplemented with 10% fetal bovine serum (FBS; Euroclone, Pavia, Italy), 2 mM glutamine (Euroclone, Pavia, Italy), 1% penicillin/streptomycin (Euroclone, Pavia, Italy), 1% sodium pyruvate (Sigma-Aldrich, Sant Louis, MO, USA), and 1% amino acid solution (Sigma).
# To determine the cytotoxic effects of BPPB, in vitro time- and dose-dependent experiments were carried out, as recently described. Briefly, cells were treated for 24, 48, and 72 h, with increasing concentrations (0.1–2.0 µM) of the compound. […] Cell cultures were carefully monitored before and during the experiments to ensure optimal cell density.
# Cell viability was determined by using the CellTiter 96® AQueous One Solution Cell Proliferation MTS Assay (Promega, Madison, WI, USA), as previously described. MTS is a colorimetric method commonly used for determining cell viability. The cell survival rate, expressed as the cell viability percentage (%), was evaluated based on the experimental outputs of treated cells vs. the untreated ones (CTRs), and was calculated as follows: cell viability (%) = (OD treated cells − OD blank)/(OD untreated cells − OD blank) × 100%. IC50 values were calculated by GraphPad Prism 8.0.1 Software (GraphPad Software v8.0, San Diego, CA, USA), as detailed in the Results and Discussion in Section 2.
smiles,measurement,setting,value
"c1ccc([P+](CCCCCCCCCCCC[P+](c2ccccc2)(c2ccccc2)c2ccccc2)(c2ccccc2)c2ccccc2)cc1 [BPPB, 1,1-(1,12-dodecanediyl)-bis-[1,1,1]-triphenyl phosphonium di-bromide]",cell viability,"1.25 µM, 24 h",42.5%
same,cell viability,"1.25 µM, 72 h",39.8%
same,cell viability,"1.5 µM, 48 h",39.4%
same,cell viability,"2 µM, 24 h",26.5%
same,cell viability,"2 µM, 48 h",33.1%
same,cell viability,"2 µM, 72 h",25.8%
same,concentration causing significant reduction in viability of cells,24 h,≥ 0.75 µM
same,HTLA ER more tolerant to BPPB than HTLA 230,24 h,1.3 times
same,IC50,"24 h exposure, 0.1–2 µM, read-out: IC50 HTLA ER",1240 ± 61 nM
same,concentration causing significant reduction in viability of cells,48 h,≥ 0.75 µM
same,HTLA ER more tolerant to BPPB than HTLA 230,48 h,2.9 times
same,IC50,"48 h exposure, 0.1–2 µM, read-out: IC50 HTLA ER",1350 ± 52 nM
same,concentration causing significant reduction in viability of cells,72 h,≥ 1.00 µM
same,HTLA ER more tolerant to BPPB than HTLA 230,72 h,3.1 times
same,IC50,"72 h exposure, 0.1–2 µM, read-out: IC50 HTLA ER",1200 ± 69.5 nM
same,IC50 lower than that determined with ETO,"HTLA ER, 24 h, ETO value ref 16",478 fold
same,IC50,"over 24, 48, 72 h exposure, read-out: IC50 on MDR HTLA ER",1200 to 1350 nM
